# Patent US20220323406A1, “METHODS AND COMPOSITIONS FOR DIFFERENTIATING STEM CELLS” (Massachusetts Institute of Technology, priority 2019, published 2022)
# Key:
# [1] = tested on: ENR+CD organoids (ISC to Paneth cell differentiation); assay: Primary screen: basal (non-stimulated) lysozyme secretion LYZ.NS, 2.5-D 384-well ENR+CD organoid differentiation; type: cell-based, mouse
# Description: (§1) High-throughput screening.
# [2] = tested on: ENR+CD organoids (ISC to Paneth cell differentiation); assay: Primary screen: CCh-stimulated lysozyme secretion LYZ.S, 2.5-D 384-well ENR+CD organoid differentiation; type: cell-based, mouse; settings: primary screen
# Description: as §1
# [3] = tested on: ENR+CD organoids; assay: Primary screen: ATP (CellTiter-Glo 3D, CTG) cell number/viability, 2.5-D 384-well ENR+CD organoids;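 note: compounds given at plating and again on day 3 over a 6-day differentiation from ENR+CV stem-cell-enriched precursors, ATP measured on day 6, plate median as control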
# [4] = primary screen, dose 0.08 uM, standard z score
# [5] = primary screen, dose 0.40 uM, standard z score
# [6] = primary screen, dose 2.00 uM, standard z score
# [7] = primary screen, dose 10.00 uM, standard z score
# [8] = primary screen; dose 0.08 uM; FC vs plate median
# [9] = primary screen; dose 0.40 uM; FC vs plate median
# [10] = primary screen; dose 2.00 uM; FC vs plate median
# [11] = primary screen; dose 10.00 uM; FC vs plate median
# [12] = dose 0.08 uM, FC vs plate median
# [13] = dose 0.40 uM, FC vs plate median
# [14] = dose 2.00 uM, FC vs plate median
# [15] = dose 10.00 uM, FC vs plate median
# [16] = primary screen, dose 0.08 uM, FC relative to plate median
# [17] = primary screen, dose 0.40 uM, FC relative to plate median
# [18] = primary screen, dose 2.00 uM, FC relative to plate median
# [19] = primary screen, dose 10.00 uM, FC relative to plate median
# [20] = primary screen, standard z score, dose 0.08 uM
# [21] = primary screen, standard z score, dose 0.40 uM
# [22] = primary screen, standard z score, dose 2.00 uM
# [23] = primary screen, standard z score, dose 10.00 uM
structure (smiles),measurement,setting,value
CCN(CC)CCCC(C)Nc1nc(C)cc(Nc2ccc3nc(C)cc(N)c3c2)n1 (centres unmarked) [NSC 23766],Z.LYZ.NS,[1]; [4],0.701
same,Z.LYZ.NS,[1]; [5],0.380
same,Z.LYZ.NS,[1]; [6],0.506
same,Z.LYZ.NS,[1]; [7],0.080
same,Dose.FC.LYZ.NS,[1]; [8],0.081 log2 fold change
same,Dose.FC.LYZ.NS,[1]; [9],0.044 log2 fold change
same,Dose.FC.LYZ.NS,[1]; [10],0.058 log2 fold change
same,Dose.FC.LYZ.NS,[1]; [11],0.009 log2 fold change
same,Dose.FC.LYZ.S,[2]; [12],0.080 log2 fold change
same,Dose.FC.LYZ.S,[2]; [13],0.090 log2 fold change
same,Dose.FC.LYZ.S,[2]; [14],0.031 log2 fold change
same,Dose.FC.LYZ.S,[2]; [15],0.030 log2 fold change
same,Z.CTG,[3]; [4],0.103
same,Z.CTG,[3]; [5],0.406
same,Z.CTG,[3]; [6],0.279
same,Z.CTG,[3]; [7],0.774
same,Dose.FC.CTG,[3]; [8],0.043 log2 fold change
same,Dose.FC.CTG,[3]; [9],0.170 log2 fold change
same,Dose.FC.CTG,[3]; [10],0.117 log2 fold change
same,Dose.FC.CTG,[3]; [11],0.324 log2 fold change
Cl.Cl.O=S(=O)(NCCNC/C=C/c1ccc(Br)cc1)c1cccc2cnccc12 [H 89 2HCl],Dose.FC.LYZ.NS (log2 fold change),"[1]; primary screen, dose 0.08 uM",0.140
same,Z.LYZ.NS (standard z score),"[1]; primary screen, dose 0.08 uM",1.223
same,Dose.FC.LYZ.NS (log2 fold change),"[1]; primary screen, dose 0.40 uM",0.080
same,Z.LYZ.NS (standard z score),"[1]; primary screen, dose 0.40 uM",0.695
same,Dose.FC.LYZ.NS (log2 fold change),"[1]; primary screen, dose 2.00 uM",0.086
same,Z.LYZ.NS (standard z score),"[1]; primary screen, dose 2.00 uM",0.747
same,Dose.FC.LYZ.NS (log2 fold change),"[1]; primary screen, dose 10.00 uM",0.132
same,Z.LYZ.NS (standard z score),"[1]; primary screen, dose 10.00 uM",1.151
same,Dose.FC.LYZ.S (log2 fold change),[2]; dose 0.08 uM,0.118
same,Dose.FC.LYZ.S (log2 fold change),[2]; dose 0.40 uM,0.148
same,Dose.FC.LYZ.S (log2 fold change),[2]; dose 2.00 uM,0.087
same,Dose.FC.LYZ.S (log2 fold change),[2]; dose 10.00 uM,0.000
same,Dose.FC.CTG (log2 fold change),"[3]; primary screen, dose 0.08 uM",0.350
same,Z.CTG (standard z score),"[3]; primary screen, dose 0.08 uM",0.836
same,Dose.FC.CTG (log2 fold change),"[3]; primary screen, dose 0.40 uM",0.398
same,Z.CTG (standard z score),"[3]; primary screen, dose 0.40 uM",0.950
same,Dose.FC.CTG (log2 fold change),"[3]; primary screen, dose 2.00 uM",0.421
same,Z.CTG (standard z score),"[3]; primary screen, dose 2.00 uM",1.005
same,Dose.FC.CTG (log2 fold change),"[3]; primary screen, dose 10.00 uM",0.385
same,Z.CTG (standard z score),"[3]; primary screen, dose 10.00 uM",0.919
CC(C)[C@H](O)C(=O)N[C@@H](C)C(=O)N[C@@H]1C(=O)N(C)CCc2ccccc21 [Semagacestat (LY450139)],Dose.FC.LYZ.NS,[1]; [16],0.017 log2 fold change
same,Z.LYZ.NS,[1]; [4],0.151
same,Dose.FC.LYZ.NS,[1]; [17],−0.021 log2 fold change
same,Z.LYZ.NS,[1]; [5],−0.181
same,Dose.FC.LYZ.NS,[1]; [18],−0.081 log2 fold change
same,Z.LYZ.NS,[1]; [6],−0.704
same,Dose.FC.LYZ.NS,[1]; [19],−0.108 log2 fold change
same,Z.LYZ.NS,[1]; [7],−0.942
same,Dose.FC.LYZ.S,"[2]; dose 0.08 uM, FC relative to plate median",−0.014 log2 fold change
same,Dose.FC.LYZ.S,"[2]; dose 0.40 uM, FC relative to plate median",−0.006 log2 fold change
same,Dose.FC.LYZ.S,"[2]; dose 2.00 uM, FC relative to plate median",−0.081 log2 fold change
same,Dose.FC.LYZ.S,"[2]; dose 10.00 uM, FC relative to plate median",−0.162 log2 fold change
same,Dose.FC.CTG,[3]; [16],0.141 log2 fold change
same,Z.CTG,[3]; [4],0.338
same,Dose.FC.CTG,[3]; [17],−0.207 log2 fold change
same,Z.CTG,[3]; [5],−0.494
same,Dose.FC.CTG,[3]; [18],−0.128 log2 fold change
same,Z.CTG,[3]; [6],−0.306
same,Dose.FC.CTG,[3]; [19],−0.856 log2 fold change
same,Z.CTG,[3]; [7],−2.045
COc1ccc2cc(-c3nc(-c4ccc([S+](C)[O-])cc4)[nH]c3-c3ccncc3)ccc2c1 (centres unmarked) [Tie2 kinase inhibitor],Dose.FC.LYZ.NS,"[1]; primary screen, dose 0.08 uM",0.009 log2 fold change
same,Z.LYZ.NS (standard z score),"[1]; primary screen, dose 0.08 uM",0.080
same,Dose.FC.LYZ.NS,"[1]; primary screen, dose 0.40 uM",0.002 log2 fold change
same,Z.LYZ.NS (standard z score),"[1]; primary screen, dose 0.40 uM",0.019
same,Dose.FC.LYZ.NS,"[1]; primary screen, dose 2.00 uM",0.181 log2 fold change
same,Z.LYZ.NS (standard z score),"[1]; primary screen, dose 2.00 uM",1.577
same,Dose.FC.LYZ.NS,"[1]; primary screen, dose 10.00 uM",−0.031 log2 fold change
same,Z.LYZ.NS (standard z score),"[1]; primary screen, dose 10.00 uM",−0.274
same,Dose.FC.LYZ.S,[2]; dose 0.08 uM,0.018 log2 fold change
same,Dose.FC.LYZ.S,[2]; dose 0.40 uM,−0.021 log2 fold change
same,Dose.FC.LYZ.S,[2]; dose 2.00 uM,0.024 log2 fold change
same,Dose.FC.LYZ.S,[2]; dose 10.00 uM,−0.097 log2 fold change
same,Dose.FC.CTG,"[3]; primary screen, dose 0.08 uM",0.005 log2 fold change
same,Z.CTG (standard z score),"[3]; primary screen, dose 0.08 uM",0.012
same,Dose.FC.CTG,"[3]; primary screen, dose 0.40 uM",0.074 log2 fold change
same,Z.CTG (standard z score),"[3]; primary screen, dose 0.40 uM",0.177
same,Dose.FC.CTG,"[3]; primary screen, dose 2.00 uM",−0.314 log2 fold change
same,Z.CTG (standard z score),"[3]; primary screen, dose 2.00 uM",−0.750
same,Dose.FC.CTG,"[3]; primary screen, dose 10.00 uM",−0.549 log2 fold change
same,Z.CTG (standard z score),"[3]; primary screen, dose 10.00 uM",−1.311
COc1cc(OC)c(NC(=O)Nc2cc(C)on2)cc1Cl [PNU-120596],Z.LYZ.NS,[1]; [4],0.944
same,Z.LYZ.NS,[1]; [5],−0.098
same,Z.LYZ.NS,[1]; [6],0.594
same,Z.LYZ.NS,[1]; [7],−0.525
same,Dose.FC.LYZ.NS,[1]; [8],0.108 log2 fold change
same,Dose.FC.LYZ.NS,[1]; [9],−0.011 log2 fold change
same,Dose.FC.LYZ.NS,[1]; [10],0.068 log2 fold change
same,Dose.FC.LYZ.NS,[1]; [11],−0.060 log2 fold change
same,Dose.FC.LYZ.S,[2]; [12],0.058 log2 fold change
same,Dose.FC.LYZ.S,[2]; [13],0.081 log2 fold change
same,Dose.FC.LYZ.S,[2]; [14],0.065 log2 fold change
same,Dose.FC.LYZ.S,[2]; [15],−0.049 log2 fold change
same,Z.CTG,[3]; [4],−0.188
same,Z.CTG,[3]; [5],0.204
same,Z.CTG,[3]; [6],0.271
same,Z.CTG,[3]; [7],0.330
same,Dose.FC.CTG,[3]; [8],−0.079 log2 fold change
same,Dose.FC.CTG,[3]; [9],0.085 log2 fold change
same,Dose.FC.CTG,[3]; [10],0.114 log2 fold change
same,Dose.FC.CTG,[3]; [11],0.138 log2 fold change
CC(C)(C)c1nc(-c2cccc(NS(=O)(=O)c3c(F)cccc3F)c2F)c(-c2ccnc(N)n2)s1 [Dabrafenib (GSK2118436)],Dose.FC.LYZ.NS,"[1]; primary screen, dose 0.08 uM",0.095 log2 fold change
same,Dose.FC.LYZ.NS,"[1]; primary screen, dose 0.40 uM",0.049 log2 fold change
same,Dose.FC.LYZ.NS,"[1]; primary screen, dose 2.00 uM",−0.001 log2 fold change
same,Dose.FC.LYZ.NS,"[1]; primary screen, dose 10.00 uM",−0.250 log2 fold change
same,Z.LYZ.NS,[1]; [20],0.830
same,Z.LYZ.NS,[1]; [21],0.427
same,Z.LYZ.NS,[1]; [22],−0.006
same,Z.LYZ.NS,[1]; [23],−2.178
same,Dose.FC.LYZ.S,[2]; dose 0.08 uM,0.236 log2 fold change
same,Dose.FC.LYZ.S,[2]; dose 0.40 uM,0.103 log2 fold change
same,Dose.FC.LYZ.S,[2]; dose 2.00 uM,0.019 log2 fold change
same,Dose.FC.LYZ.S,[2]; dose 10.00 uM,−0.384 log2 fold change
same,Dose.FC.CTG,"[3]; primary screen, dose 0.08 uM",−0.134 log2 fold change
same,Dose.FC.CTG,"[3]; primary screen, dose 0.40 uM",0.011 log2 fold change
same,Dose.FC.CTG,"[3]; primary screen, dose 2.00 uM",−0.279 log2 fold change
same,Dose.FC.CTG,"[3]; primary screen, dose 10.00 uM",−0.800 log2 fold change
same,Z.CTG,[3]; [20],−0.320
same,Z.CTG,[3]; [21],0.026
same,Z.CTG,[3]; [22],−0.667
same,Z.CTG,[3]; [23],−1.911
C[C@H](Cn1cnc2c(N)ncnc21)OCP(=O)(O)O [Tenofovir],Dose.FC.LYZ.NS,"[1]; primary screen, dose 0.08 uM",0.077 log2 fold change
same,Z.LYZ.NS (standard z score),"[1]; primary screen, dose 0.08 uM",0.673
same,Dose.FC.LYZ.NS,"[1]; primary screen, dose 0.40 uM",−0.076 log2 fold change
same,Z.LYZ.NS (standard z score),"[1]; primary screen, dose 0.40 uM",−0.662
same,Dose.FC.LYZ.NS,"[1]; primary screen, dose 2.00 uM",−0.132 log2 fold change
same,Z.LYZ.NS (standard z score),"[1]; primary screen, dose 2.00 uM",−1.153
same,Dose.FC.LYZ.NS,"[1]; primary screen, dose 10.00 uM",−0.218 log2 fold change
same,Z.LYZ.NS (standard z score),"[1]; primary screen, dose 10.00 uM",−1.899
same,Dose.FC.LYZ.S,[2]; dose 0.08 uM,0.045 log2 fold change
same,Dose.FC.LYZ.S,[2]; dose 0.40 uM,−0.080 log2 fold change
same,Dose.FC.LYZ.S,[2]; dose 2.00 uM,−0.171 log2 fold change
same,Dose.FC.LYZ.S,[2]; dose 10.00 uM,−0.271 log2 fold change
same,Dose.FC.CTG,"[3]; primary screen, dose 0.08 uM",0.019 log2 fold change
same,Z.CTG (standard z score),"[3]; primary screen, dose 0.08 uM",0.045
same,Dose.FC.CTG,"[3]; primary screen, dose 0.40 uM",−0.084 log2 fold change
same,Z.CTG (standard z score),"[3]; primary screen, dose 0.40 uM",−0.200
same,Dose.FC.CTG,"[3]; primary screen, dose 2.00 uM",−0.129 log2 fold change
same,Z.CTG (standard z score),"[3]; primary screen, dose 2.00 uM",−0.308
same,Dose.FC.CTG,"[3]; primary screen, dose 10.00 uM",−0.337 log2 fold change
same,Z.CTG (standard z score),"[3]; primary screen, dose 10.00 uM",−0.804
